Where two headings read alike, the source gives them in different places.
Legend:
[1] = system: Gram-negative bacteria; test: Geometric mean MIC and therapeutic index, Gram-negative bacteria; type: cell-based
Outline: (§1)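 Therapeutic index taken as the ratio of HC10 on human erythrocytes to geometric mean MIC. MICs from CLSI broth microdilution with peptides at 50 down to 0.78 µg/mL, inoculum 5 × 10^5 CFU/mL, in MH or modified LYM broth; triplicate independent experiments.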

[2] = system: Gram-positive bacteria; test: Geometric mean MIC and therapeutic index, Gram-positive bacteria; type: cell-based
Outline: as §1

[3] = system: S. aureus ATCC 33592
Outline: (§2)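 MICs came from CLSI broth microdilution, with 5 × 10^5 CFU/mL bacteria exposed to peptide at final 0.78–50 µg/mL. Media were MH broth or LYM broth (pH 7.4), the latter also adjusted for salt (NaCl 50–300 mM, MgCl2 0.5–2.5 mM) or acidity (pH 4.5–6.5); triplicate independent experiments.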

[4] = system: S. aureus ATCC 6538
Outline: as §2

[5] = system: A. baumannii 14B0097 (Acinetobacter sp., BCRC number 14B0097)
Outline: as §2

[6] = LYM broth, 0 mM NaCl, 16 h, 37 °C
[7] = LYM broth, 50 mM NaCl, 16 h, 37 °C
[8] = LYM broth, 100 mM NaCl, 16 h, 37 °C
[9] = LYM broth, 200 mM (NaCl), 16 h, 37 °C
[10] = LYM broth, 300 mM (NaCl), 16 h, 37 °C
[11] = MH broth, 5 × 10^5 CFU/mL, 16 h, 37 °C, repeated three times

In the case of Ac-KKKKWRKWLKWLA-NH2 [Peptide W5K11], the “GM G− (geometric mean of the MIC values)” value [1] is reported as 2.1 µg/mL, the “Therapeutic Index (TI) G−” value ([1]; HC10/GM, Gram-negative bacteria) is reported as 34.5 and the “GM G+ (geometric mean of the MIC values)” value [2] is reported as 5.4 µg/mL. The “Therapeutic Index (TI) G+” value ([2]; HC10/GM, Gram-positive bacteria) was 13.0, the MIC [3, 6] was 3.13 µg/mL and the MIC ([3]; LYM broth, 0.5 mM MgCl2) was 3.13 µg/mL. The MIC ([3]; LYM broth, 1.5 mM MgCl2) was 3.13 µg/mL, the MIC ([3]; LYM broth, 2.5 mM MgCl2) was 3.13 µg/mL and the MIC [3, 7] was 3.13 µg/mL. It also gave an MIC [3, 8] of 3.13 µg/mL, an MIC [3, 9] of 3.13 µg/mL and an MIC [3, 10] of 6.25 µg/mL. It also gave an MIC ([3]; LYM broth, pH 4.5) of 3.13 µg/mL, an MIC ([3]; LYM broth, pH 5.5) of 3.13 µg/mL and an MIC ([3]; LYM broth, pH 6.5) of 1.56 µg/mL. The MIC [3, 11] was 6.25 µg/mL, the MIC [4, 6] was 1.56 µg/mL and the MIC ([4]; LYM broth, 0.5 mM MgCl2) was 1.56 µg/mL. It also gave an MIC ([4]; LYM broth, 1.5 mM MgCl2) of 1.56 µg/mL, an MIC ([4]; LYM broth, 2.5 mM MgCl2) of 1.56 µg/mL and an MIC [4, 7] of 1.56 µg/mL. It also gave an MIC [4, 8] of 3.13 µg/mL, an MIC [4, 9] of 3.13 µg/mL and an MIC [4, 10] of 6.25 µg/mL. The MIC ([4]; LYM broth, pH 4.5) was 3.13 µg/mL, the MIC ([4]; LYM broth, pH 5.5) was 1.56 µg/mL and the MIC ([4]; LYM broth, pH 6.5) was 1.56 µg/mL. For the same substance, the MIC [4, 11] was 3.13 µg/mL, the MIC [5, 6] was 1.56 µg/mL and the MIC ([5]; LYM broth, 0.5 mM MgCl2) was 1.56 µg/mL. It also gave an MIC ([5]; LYM broth, 1.5 mM MgCl2) of 1.56 µg/mL, an MIC ([5]; LYM broth, 2.5 mM MgCl2) of 1.56 µg/mL and an MIC [5, 7] of 1.56 µg/mL. It also gave an MIC [5, 8] of 1.56 µg/mL, an MIC [5, 9] of 1.56 µg/mL and an MIC [5, 10] of 1.56 µg/mL. The MIC ([5]; LYM broth, pH 4.5) was 1.56 µg/mL, the MIC ([5]; LYM broth, pH 5.5) was 1.56 µg/mL and the MIC ([5]; LYM broth, pH 6.5) was 1.56 µg/mL. For the same substance, the MIC [5, 11] was 1.56 µg/mL.

From PMC12649549, “Sequence Permutation Generated Lysine and Tryptophan-Rich Antimicrobial Peptides with Enhanced Therapeutic Index” (Antibiotics, 2025)
